Test results as given in US20260207535A1, “CRIBLAGE INHIBITEURS USP8” (COMMISSARIAT A L'ENERGIE ATOMIQUE ET AUX ENERGIES …, priority 2022, published 2026).

Experiments:
[1] = molecular target: T1, Full length USP8 (USP8FL) (Homo sapiens, UniProt P40818); assay: USP8FL (full length USP8) enzymatic inhibition, Ub-Rhodamine 110 hydrolysis in L-cysteine buffer; assay type: biochemical
T1 construct: purchased BostonBiochem E-520
T1 sequence (P40818 1-1118): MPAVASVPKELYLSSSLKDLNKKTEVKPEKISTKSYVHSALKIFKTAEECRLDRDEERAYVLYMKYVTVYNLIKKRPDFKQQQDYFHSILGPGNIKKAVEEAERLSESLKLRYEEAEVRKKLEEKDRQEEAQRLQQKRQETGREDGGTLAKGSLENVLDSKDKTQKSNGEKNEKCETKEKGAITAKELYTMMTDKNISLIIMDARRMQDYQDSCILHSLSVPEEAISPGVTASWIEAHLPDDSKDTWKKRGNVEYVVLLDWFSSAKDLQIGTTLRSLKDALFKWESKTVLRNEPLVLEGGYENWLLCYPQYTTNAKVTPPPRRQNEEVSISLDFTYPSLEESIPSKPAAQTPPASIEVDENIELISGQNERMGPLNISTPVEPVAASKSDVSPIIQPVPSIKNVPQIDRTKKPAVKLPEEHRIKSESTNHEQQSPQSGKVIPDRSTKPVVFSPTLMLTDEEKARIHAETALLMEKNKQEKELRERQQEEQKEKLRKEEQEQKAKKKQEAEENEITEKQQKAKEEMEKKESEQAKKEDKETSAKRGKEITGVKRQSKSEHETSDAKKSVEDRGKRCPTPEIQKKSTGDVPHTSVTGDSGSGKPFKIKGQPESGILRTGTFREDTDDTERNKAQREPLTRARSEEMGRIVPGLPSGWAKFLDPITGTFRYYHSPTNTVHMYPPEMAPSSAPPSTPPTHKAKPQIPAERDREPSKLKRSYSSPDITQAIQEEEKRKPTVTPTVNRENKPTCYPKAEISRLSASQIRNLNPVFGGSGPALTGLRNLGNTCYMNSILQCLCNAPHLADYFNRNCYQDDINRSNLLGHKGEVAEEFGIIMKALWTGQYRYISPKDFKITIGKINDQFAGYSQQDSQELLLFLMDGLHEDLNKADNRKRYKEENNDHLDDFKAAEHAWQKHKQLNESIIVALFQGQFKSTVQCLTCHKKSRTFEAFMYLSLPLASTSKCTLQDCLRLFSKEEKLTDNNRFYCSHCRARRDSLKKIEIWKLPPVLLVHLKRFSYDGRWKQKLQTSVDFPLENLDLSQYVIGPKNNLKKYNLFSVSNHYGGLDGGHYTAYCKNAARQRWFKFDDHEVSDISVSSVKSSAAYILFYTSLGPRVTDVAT
Method: USP8 FL (USP8 Full Length) was incubated at a concentration of 75 nM in the presence of Ub-Rho (UBIQUIGENT ref. 60-0117-050) at a final concentration of 0.1 μM, in conditions ensuring linearity of enzyme activity throughout the assay in a specific buffer. Compounds were added to the reaction mix at different doses just before the substrate. The enzymatic reaction kinetics were monitored by measuring fluorescence elicited by the hydrolysis of Ub-Rho over 30 min.
In this setup, an in-house purified catalytic domain of USP8 (USP8CD) was used at a concentration of 80 nM in the presence of the artificial substrate Ubiquitin-Rhodamine 110 (Ub-Rho) (ref: 60-0117-050 Ubiquigent) at a final concentration of 0.1 μM, in conditions ensuring linearity of enzyme activity throughout the assay incubation time. Enzymatic assay was performed in a Tris HCl buffer (40 mM Tris HCl pH 7.4, Ovalbumine 0.5 mg/ml, Cysteine HCl 5.5 mM). Compounds to be tested were added to the reaction mix and incubated with enzyme for 20 min, before the substrate. The enzymatic reaction kinetics were monitored by measuring fluorescence elicited by the hydrolysis of the peptidyl Ub-Rho over 30 minutes. The negative control was the solvent DMSO at 1%.
Full length USP8 (USPBFL) (BostonBiochem ref. E-520) were used at a concentration of 75 nM in the presence of a ubiquitin substrate, i.e., the Ub-Rhodamine 110 (Ub-Rho) (Ubiquigent ref. 60-0117-050) at a final concentration of 0.1 μM. Enzymatic assays were performed as described for USP8-CD except that USP-FL was used at a concentration of 75 nM. The compounds were used at a final concentration of 0.1, 1, 5, 10, 50 and 100 μM in DMSO 0.5%. The USP8 catalytic activity was monitored both before adding the substrate (TO) and after twenty minutes of incubation at room temperature (Final Time TF). The enzymatic reaction kinetics were monitored by measuring fluorescence elicited by the hydrolysis of the Ub-Rho bound over 30 minutes.

[2] = molecular target: T2, USP8CD (Homo sapiens, UniProt P40818); assay: Reversibility (dilution / gel filtration) assay of USP8 inhibition; assay type: biochemical; conditions: USP8CD 60 nM, activity before and after gel column filtration
T2 construct: an in-house purified catalytic domain of USP8 (USP8CD) was used at a concentration of 80 nM; made in house
T2 sequence (P40818 777-1109 limits assumed): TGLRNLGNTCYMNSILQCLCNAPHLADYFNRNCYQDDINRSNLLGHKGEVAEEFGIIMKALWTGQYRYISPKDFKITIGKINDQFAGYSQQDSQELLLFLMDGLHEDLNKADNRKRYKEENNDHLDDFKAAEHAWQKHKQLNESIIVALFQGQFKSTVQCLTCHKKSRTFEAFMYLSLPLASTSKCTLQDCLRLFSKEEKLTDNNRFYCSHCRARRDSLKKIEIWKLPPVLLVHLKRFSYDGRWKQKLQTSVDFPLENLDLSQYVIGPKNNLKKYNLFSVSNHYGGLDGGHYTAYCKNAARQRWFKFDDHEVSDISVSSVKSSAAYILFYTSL
Method: DUB activity relies on a conserved catalytic cysteine residue which is particularly sensitive to irreversible oxidation by reactive oxygen species (ROS) (Lee et al., 2013). […] In this setup, purified USP8CD was used at a concentration of 60 nM and incubated for 20 min with either the inhibitory compound or with DMSO in buffered conditions. The catalytic activity of each mix was monitored on Ub-Rho substrate (Ubiquigent ref. 60-0117-050) used at a final concentration of 0.1 μM before and after filtration on a gel column (Millipore UFC30GV25). If a catalytic activity is detected after column filtration, the compound is a reversible inhibitor.

SMILES: Cc1cc(C(C#N)c2ccc(Cl)cc2)c(Cl)cc1NC(=O)c1cc(I)cc(I)c1O (stereo not drawn) [Closantel, reference compound]
- activity against USP8 (CD and FL) ([1]; USP8 CD and FL): active
- IC50 ([1]; USP8 FL 75 nM, Ub-Rho 0.1 μM, L-cysteine buffer, read-out: USP8FL inhbition IC50 [μM] (CI: Confidence Interval)): 12 µM
- reversibility of USP8 inhibition [2]: reversible
